The target of one data set is T1, Human recombinant sEH (Homo sapiens, UniProt P34913).
T1 construct: made in house; host or cells: Sf9 insect cells (recombinant baculovirus)
T1 sequence (P34913 1-555): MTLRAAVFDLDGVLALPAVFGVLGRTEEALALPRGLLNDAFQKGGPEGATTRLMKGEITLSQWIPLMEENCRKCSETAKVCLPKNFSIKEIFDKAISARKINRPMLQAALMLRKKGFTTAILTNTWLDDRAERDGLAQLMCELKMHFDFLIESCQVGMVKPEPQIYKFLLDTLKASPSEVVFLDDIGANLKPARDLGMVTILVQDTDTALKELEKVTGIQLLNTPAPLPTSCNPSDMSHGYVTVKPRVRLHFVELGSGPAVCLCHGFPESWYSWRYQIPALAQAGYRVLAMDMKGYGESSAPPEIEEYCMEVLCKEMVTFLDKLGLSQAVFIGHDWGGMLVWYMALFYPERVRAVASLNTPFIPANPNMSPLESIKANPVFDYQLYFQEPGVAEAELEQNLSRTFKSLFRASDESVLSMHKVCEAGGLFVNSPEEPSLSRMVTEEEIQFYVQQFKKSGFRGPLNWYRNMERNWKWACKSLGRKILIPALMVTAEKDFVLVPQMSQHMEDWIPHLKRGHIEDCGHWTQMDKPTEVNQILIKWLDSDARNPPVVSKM
In words: Cell-free sEH activity (PHOME fluorescence). The data set is classed as biochemical. Particulars: human isolated sEH. The protocol: Human recombinant sEH was expressed in Sf9 insect cells and purified by affinity chromatography. […] Elution with 4-fluorochalcone oxide in PBS pH 7.4 with 1 mM dithiothreitol and 1 mM EDTA yielded sEH, which was dialyzed and concentrated. Purified sEH (60 ng) in 25 mM Tris HCl pH 7 with 0.1 mg/mL bovine serum albumin (BSA) was preincubated with the vehicle (DMSO) or test compounds for 1 min at room temperature. The sEH substrate PHOME (20 μM, Cayman Chemicals) was added to start the enzymatic reaction, which was stopped after 60 min in the dark by the addition of ZnSO4 (200 mM).

Data set [1] can be described thus: UGTs/CYPs dual-activity mouse liver microsomal stability. The data set is classed as in vitro ADME. The settings on record: for UGTs/CYPs dual-activity mouse liver microsomal stability: 5 μM, NADPH + UDP-GlcUA; for half-life at 5 µM / microsomal CLint at 1 h, 5 µM / half-life at 1 h, 5 µM: CD-1, mouse liver microsomes; for half-life at 5 µM / half-life at 1 h, 5 µM: 0.693/k, read-out: in vitro half-life; for microsomal CLint at 1 h, 5 µM: read-out: microsomal intrinsic clearance (CLint,micr). The protocol: Initially, the chemical stability of the compounds was studied in phosphate buffer at pH 7.4. […] The same stability was evident in mouse plasma at two different time points (1 and 2 h, Table 2). In addition, all the compounds were subjected to an in vitro microsomal stability assay. In this assay, the metabolism of the parent compound over time (up to 60 min) was measured by liquid chromatography–mass spectrometry (LC–MS) in the presence of CYP450 and UGTs (uridine 5′-diphospho-glucuronosyltransferases) microsomal systems. The measurement of hepatic metabolism also allowed the determination of different pharmacokinetic parameters such as in vitro intrinsic clearance (CLint,micr) and to predict in vivo intrinsic clearance (CLint). The predicted in vivo CLint values were calculated using a microsomal protein value of 45 mg per gram of liver tissue and 87 g of liver per kg of body weight. The microsomal stability assay was validated using testosterone (low stability in the presence of NADPH), 2-naphthol (low stability using NADPH and UDPGA cofactors), and 3-(α-acetonylbenzyl)-4-hydroxy coumarin (high stability in dual-activity assay) as positive controls. To detect nonspecific protein binding or heat instability, the compounds were incubated without cofactors (negative control). Moreover, since microsomal concentrations > 2 mg mL^–1 are not recommended due to a potential negative impact of increased nonspecific binding on the rate of metabolism,[25] in our assay we used a low concentration of liver microsomes (0.5 mg mL^–1).
For microsomal stability assay, 25 μL of 5 mg mL^–1 mouse (CD-1) microsomes (Thermo Fisher Scientific, Bremen, Germany) were preincubated for 5 min at 37 °C with alamethicin and 2.5 μL of each sample (5 μM). The reaction started by adding a 50 μL mixture of 10 mM NADPH and UDP-GlcUA as cofactors (1:1 v/v) and was carried out at 37 °C for 15, 30, and 60 min in a Thermomixer comfort. The reaction was stopped by the addition of 200 μL of ice-cold methanol containing IS, and then samples were centrifuged at 14,680 rpm at 25 °C for 7 min (Eppendorf microcentrifuge 5424, Hamburg, Germany). The supernatants were collected and injected in LC-MS.
The control at 0 min was obtained by the addition of the organic solvent immediately after incubation with microsomes. Testosterone, 2-naphthol, and 3-(α-acetonylbenzyl)-4-hydroxy coumarin were used as the positive controls, while the negative control was prepared by incubation for up to 60 min without cofactors. The extent of metabolism is expressed as a percentage of the parent compound turnover. All experiments were performed in triplicate.

In general, IC50 refers to the point on the concentration scale where inhibition reaches its midpoint. As a reminder, the half-life is how long it takes for the measured level to halve. As a reminder, the microsomal CLint is a measure of how fast metabolising enzymes remove a compound, apart from limits set by blood flow.

Molecules are shown by their SMILES.

With `O=C(Nc1ccc2c(c1)CCN2Cc1ccc(F)cc1)NC12C[C@H]3C[C@@H](C1)C[C@@H](C2)C3` [Compound 6, 1-((3S,5S,7S)-Adamantan-1-yl)-3-(1-(4-fluorobenzyl)indolin-5-yl)urea], on Human recombinant sEH, the IC50 worked out at 7.22 ± 1.11 nM. Besides, the “UGTs/CYPs dual-activity mouse liver microsomal stability” value in data set [1] (0.25 h, 0.5 mg mL–1 microsomes) turned out to be 21.3 ± 0.9%; in data set [1] (0.5 h) it was 10.9 ± 0.1%; in data set [1] (1.0 h), 10.6 ± 0.1%. For the same compound, the half-life at 5 µM in data set [1] was 20.4 min. Further, the microsomal CLint at 1 h, 5 µM in data set [1] amounted to 67.8 µL/min/mg.
For `O=C(NCC12C[C@H]3C[C@@H](C1)C[C@@H](C2)C3)Nc1ccc2c(ccn2Cc2ccc(F)cc2)c1` [Compound 27, 1-(((3R,5R,7R)-Adamantan-1-yl)methyl)-3-(1-(4-fluorobenzyl)-1H-indol-5-yl)urea], the IC50 on Human recombinant sEH amounted to 1.75 ± 0.593 nM. The “UGTs/CYPs dual-activity mouse liver microsomal stability” value in data set [1] (0.25 h, 0.5 mg mL–1 microsomes) came to 8.4 ± 0.3%; in data set [1] (0.5 h), 3.2 ± 1.0%; in data set [1] (1.0 h), 2.1 ± 0.7%. In addition, the half-life at 5 µM in data set [1] is 11.9 min. For the same compound, in data set [1], the microsomal CLint at 1 h, 5 µM came out at 117 µL/min/mg.
Take `CC(C)c1ccc(Cn2ccc3cc(NC(=O)NCC45C[C@H]6C[C@@H](C4)C[C@@H](C5)C6)ccc32)cc1` [Compound 28, 1-(((3R,5R,7R)-Adamantan-1-yl)methyl)-3-(1-(4-isopropylbenzyl)-1H-indol-5-yl)urea]: the IC50 at Human recombinant sEH stood at 2 ± 1.1 nM. Also, the “UGTs/CYPs dual-activity mouse liver microsomal stability” value in data set [1] (0.25 h, 0.5 mg mL–1 microsomes) came out at 91.5 ± 2.2%; in data set [1] (0.5 h) it was 69.8 ± 2.9%; in data set [1] (1.0 h), 53.1 ± 2.8%. The half-life at 1 h, 5 µM in data set [1] worked out at 62.9 min. In data set [1], the microsomal CLint at 1 h, 5 µM amounted to 22 µL/min/mg.
As for `O=C(NCC12C[C@H]3C[C@@H](C1)C[C@@H](C2)C3)Nc1ccc2c(ccn2CCc2ccc(F)cc2)c1` [Compound 30, 1-(((3R,5R,7R)-Adamantan-1-yl)methyl)-3-(1-(4-fluorophenethyl)-1H-indol-5-yl)urea], on Human recombinant sEH, the IC50 was found to be 1.1 ± 0.4 nM. Moreover, the “UGTs/CYPs dual-activity mouse liver microsomal stability” value is recorded as 16.6 ± 1.4% in data set [1] (0.25 h, 0.5 mg mL–1 microsomes); 9.3 ± 0.6% in data set [1] (0.5 h); 5.7 ± 0.2% in data set [1] (1.0 h). In addition, the half-life at 5 µM in data set [1] came to 16 min. Moreover, the microsomal CLint at 1 h, 5 µM in data set [1] was 86.6 µL/min/mg.
On to `O=C(NCC12C[C@H]3C[C@@H](C1)C[C@@H](C2)C3)Nc1ccc2c(ccn2C(=O)c2ccc(F)cc2)c1` [Compound 36, 1-(((3R,5R,7R)-Adamantan-1-yl)methyl)-3-(1-(4-fluorobenzoyl)-1H-indol-5-yl)urea], for which the IC50 on Human recombinant sEH amounted to 2.6 ± 0.4 nM. Moreover, the “UGTs/CYPs dual-activity mouse liver microsomal stability” value in data set [1] (0.25 h, 0.5 mg mL–1 microsomes) was determined as 20.4 ± 1.8%; in data set [1] (0.5 h), 11.9 ± 0.6%; in data set [1] (1.0 h) it was 2.4 ± 0.4%. The half-life at 1 h, 5 µM in data set [1] was 11.8 min. In data set [1], the microsomal CLint at 1 h, 5 µM was found to be 118 µL/min/mg.

The values above are taken from publication PMC10350924, “Design, Synthesis, and Pharmacological Characterization of a Potent Soluble Epoxide Hydrolase Inhibitor for the Treatment of Acute Pancreatitis” (Journal of Medicinal Chemistry, 2023).
